Measured values: publication PMC4508061, “Selectivity Profiling and Biological Activity of Novel β-Carbolines as Potent and Selective DYRK1 Kinase Inhibitors” (PLoS ONE, 2015)
Read-outs that look alike come from different tables or passages of the source.

Assays:
DYRK1A [1] = target: T1, DYRK1A (Rattus norvegicus, UniProt Q63470); test: Radioactive kinase assay (DYRKtide, 33P-ATP); format: biochemical; conditions: 100 μM ATP, n = 3–5 concentration response curves, read-out: Inhibition of DYRK1A IC50
T1 construct: Bacterial expression plasmids for GST-DYRK1A-ΔC and GST-DYRK2 have been described earlier; made in house; host or cells: E. coli
Experimental: Each sample was assayed in triplicate. […]
estimate solubility and permeability in drug discovery and development settings. Adv. Drug Delivery Rev. 23, 4-25. […]
that influence the oral bioavailability of drug candidates. […]
c estimated using the Molinspiration logP engine. […]
log [inhibitor,M] log [inhibitor, M]
(§1) 2 were calculated. Kinase activity of DYRK1A was determined by radiometric assays using the peptide DYRKtide as a substrate. MAO-A activity was measured with the help of the MAO-GLO assay kit (Promega). IC50 values were calculated by curve fitting with the help of […]
(§2) the […] PRISM 5.0 program after automatic outlier elimination. The graphs present

MAO-A = target: T2, MAO-A (Homo sapiens, UniProt P21397); test: MAO-GLO assay; format: biochemical; conditions: for IC50: read-out: Inhibition of MAO-A IC50
T2 sequence (P21397 1-527): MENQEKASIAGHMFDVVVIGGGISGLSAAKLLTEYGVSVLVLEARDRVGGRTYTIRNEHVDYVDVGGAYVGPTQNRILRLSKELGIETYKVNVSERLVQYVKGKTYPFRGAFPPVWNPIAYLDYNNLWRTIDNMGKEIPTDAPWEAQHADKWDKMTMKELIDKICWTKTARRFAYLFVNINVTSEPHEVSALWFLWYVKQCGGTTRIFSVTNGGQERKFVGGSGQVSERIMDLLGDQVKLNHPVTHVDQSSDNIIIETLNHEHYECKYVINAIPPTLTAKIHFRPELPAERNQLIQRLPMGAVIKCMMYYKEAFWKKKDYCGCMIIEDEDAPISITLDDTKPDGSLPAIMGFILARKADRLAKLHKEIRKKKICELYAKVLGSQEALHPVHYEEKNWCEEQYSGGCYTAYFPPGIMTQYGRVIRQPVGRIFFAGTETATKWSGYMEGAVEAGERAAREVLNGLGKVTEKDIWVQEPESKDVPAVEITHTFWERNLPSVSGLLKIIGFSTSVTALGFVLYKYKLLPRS
Experimental: as §1, §2

Cell viability XTT assay [2] = format: cell-based; conditions: rat, PC12 cells, read-out: Viability of treated cells relative to untreated control; for viability at 3 days, 1 µM: PC12, 1 μM; for viability at 3 days, 3 µM: PC12, 3 μM; for viability at 3 days, 10 µM: PC12, 10 μM
DYRK2 [3] = target: T3, DYRK2 (Homo sapiens, UniProt Q92630); test: Kinase-GLO luminescent kinase assay; format: biochemical; conditions: 1 μM compound; means of at least 3 measurements
T3 construct: purchased ProQinase (Freiburg, Germany)
T3 sequence (Q92630 1-601): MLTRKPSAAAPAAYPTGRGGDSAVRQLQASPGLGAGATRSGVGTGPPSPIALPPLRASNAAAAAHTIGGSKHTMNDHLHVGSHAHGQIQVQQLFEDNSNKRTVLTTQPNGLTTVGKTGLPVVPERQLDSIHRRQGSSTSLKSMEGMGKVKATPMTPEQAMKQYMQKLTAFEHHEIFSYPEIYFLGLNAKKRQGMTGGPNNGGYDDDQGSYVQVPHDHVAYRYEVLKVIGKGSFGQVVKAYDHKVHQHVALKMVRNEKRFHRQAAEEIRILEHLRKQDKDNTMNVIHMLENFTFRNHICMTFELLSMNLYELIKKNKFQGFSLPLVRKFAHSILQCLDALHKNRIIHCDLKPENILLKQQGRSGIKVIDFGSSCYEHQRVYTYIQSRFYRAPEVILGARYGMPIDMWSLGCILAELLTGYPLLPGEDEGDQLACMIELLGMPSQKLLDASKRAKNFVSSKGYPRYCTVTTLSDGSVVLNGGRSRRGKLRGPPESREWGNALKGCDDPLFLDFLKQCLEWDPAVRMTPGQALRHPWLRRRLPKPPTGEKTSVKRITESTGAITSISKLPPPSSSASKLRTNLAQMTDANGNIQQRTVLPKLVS
Experimental: (§3) Bacterial expression plasmids for GST-DYRK1A-ΔC and GST-DYRK2 have been described earlier. […] Expression in logarithmically growing E. coli culture was performed for 3 h at 37°C (GST-DYRK1A-ΔC and GST-DYRK2), 3 h at 26°C (GST-HIPK2cat), over night at 28°C (GST-CLK1cat) or over night at room temperature (GST-DYRK1Bcat).
(§4) Compounds were screened for inhibitory effects against GST-DYRK1A-ΔC, GST-DYRK1Bcat, GST-DYRK2, GST-CLK1cat or GST-HIPK2cat using the Kinase-GLO Luminescent Kinase Assay from Promega. Assays were performed in a total volume of 10 μL in kinase-buffer (25 mM Hepes pH 7.4, 0.5 mM DTT, 5 mM MgCl2, 5 μM ATP) with appropriate peptide substrates (20 μM DYRKtide for the DYRKs and 100 μM DYRKtide for HIPK2, […]; or 100 μM RS domain-derived peptide for CLK1, […]). Assays were started with this amount of a kinase preparation that consumed approximately 90% of the ATP in the assay (linear range of the kinase titration curve). The reactions were run at room temperature for 30 min before 10 μL Kinase-GLO reagent was added. After incubation at room temperature for additional 10 min, luminescence was recorded for 1 s.

DYRK1A [4] = target: T4, DYRK1A (Homo sapiens, UniProt Q13627); test: Kinase-GLO luminescent kinase assay; format: biochemical; conditions: 1 μM compound; means of at least 3 measurements
T4 construct: purchased ProQinase (Freiburg, Germany)
Experimental: as §3, §4

Cell viability XTT assay [5] = format: cell-based; conditions: human, SH-SY5Y cells, read-out: Viability of treated cells relative to untreated control
Cell viability XTT assay [6] = format: cell-based; conditions: human, HeLa cells, read-out: Viability of treated cells relative to untreated control
DYRK1B = DYRK1B (Homo sapiens, UniProt Q9Y463); test: Kinase-GLO luminescent kinase assay; format: biochemical; parameters: made in house; host or cells: E. coli; conditions: 1 μM compound; means of at least 3 measurements
Experimental: as §3, §4

HIPK2 = HIPK2 (Homo sapiens, UniProt Q9H2X6); test: Kinase-GLO luminescent kinase assay; format: biochemical; parameters: made in house; host or cells: E. coli; conditions: 10 μM compound; means of at least 3 measurements
Chain of HIPK2 (Q9H2X6 180-533): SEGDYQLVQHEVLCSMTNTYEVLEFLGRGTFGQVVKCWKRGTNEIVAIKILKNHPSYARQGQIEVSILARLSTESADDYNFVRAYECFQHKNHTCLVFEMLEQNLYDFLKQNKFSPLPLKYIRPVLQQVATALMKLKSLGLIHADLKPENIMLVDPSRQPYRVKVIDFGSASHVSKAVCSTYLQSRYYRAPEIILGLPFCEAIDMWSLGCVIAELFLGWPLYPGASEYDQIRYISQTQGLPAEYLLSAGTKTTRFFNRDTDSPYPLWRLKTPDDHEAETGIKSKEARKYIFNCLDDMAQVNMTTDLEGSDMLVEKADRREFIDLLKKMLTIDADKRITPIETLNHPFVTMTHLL
Experimental: as §3, §4

CLK1 [7] = target: T5, CLK1 (Homo sapiens, UniProt P49759); test: Kinase-GLO luminescent kinase assay; format: biochemical; parameters: made in house; host or cells: E. coli; conditions: 1 μM compound; means of at least 3 measurements
Experimental: as §3, §4

PIM1 = PIM1 (Homo sapiens, UniProt P11309); parameters: purchased ProQinase (Freiburg, Germany); conditions: 10 μM; cited from earlier work
Chain of PIM1 (P11309 whole entry): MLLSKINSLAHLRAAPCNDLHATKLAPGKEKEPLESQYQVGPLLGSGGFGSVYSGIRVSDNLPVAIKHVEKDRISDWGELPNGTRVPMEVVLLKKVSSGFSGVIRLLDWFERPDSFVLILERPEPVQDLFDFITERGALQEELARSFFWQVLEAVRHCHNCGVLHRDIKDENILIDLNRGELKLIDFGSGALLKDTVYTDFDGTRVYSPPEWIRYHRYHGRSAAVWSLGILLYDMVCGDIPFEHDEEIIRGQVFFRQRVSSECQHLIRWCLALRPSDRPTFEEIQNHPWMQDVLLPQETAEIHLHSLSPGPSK

DYRK4 = target: T6, DYRK4 (Homo sapiens, UniProt Q9NR20); conditions: 10 μM; cited from earlier work
T6 construct: purchased ProQinase (Freiburg, Germany)
T6 sequence (Q9NR20 whole entry): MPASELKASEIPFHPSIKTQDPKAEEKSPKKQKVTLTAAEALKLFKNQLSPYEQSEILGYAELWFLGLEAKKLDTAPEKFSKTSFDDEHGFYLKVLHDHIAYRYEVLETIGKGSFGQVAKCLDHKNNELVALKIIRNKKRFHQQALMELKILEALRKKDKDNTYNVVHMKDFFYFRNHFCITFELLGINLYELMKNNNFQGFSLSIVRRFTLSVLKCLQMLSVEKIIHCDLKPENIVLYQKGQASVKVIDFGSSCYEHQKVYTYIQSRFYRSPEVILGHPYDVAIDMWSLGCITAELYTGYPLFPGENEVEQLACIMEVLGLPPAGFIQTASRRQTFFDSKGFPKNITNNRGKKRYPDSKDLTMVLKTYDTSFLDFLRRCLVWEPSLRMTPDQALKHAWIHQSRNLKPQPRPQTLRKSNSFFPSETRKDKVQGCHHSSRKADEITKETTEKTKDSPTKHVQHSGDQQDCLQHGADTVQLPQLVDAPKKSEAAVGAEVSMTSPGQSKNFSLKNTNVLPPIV

CLK3 = target: T7, CLK3 (Homo sapiens, UniProt P49761); conditions: 10 μM; cited from earlier work
T7 construct: purchased ProQinase (Freiburg, Germany)
T7 sequence (P49761 whole entry): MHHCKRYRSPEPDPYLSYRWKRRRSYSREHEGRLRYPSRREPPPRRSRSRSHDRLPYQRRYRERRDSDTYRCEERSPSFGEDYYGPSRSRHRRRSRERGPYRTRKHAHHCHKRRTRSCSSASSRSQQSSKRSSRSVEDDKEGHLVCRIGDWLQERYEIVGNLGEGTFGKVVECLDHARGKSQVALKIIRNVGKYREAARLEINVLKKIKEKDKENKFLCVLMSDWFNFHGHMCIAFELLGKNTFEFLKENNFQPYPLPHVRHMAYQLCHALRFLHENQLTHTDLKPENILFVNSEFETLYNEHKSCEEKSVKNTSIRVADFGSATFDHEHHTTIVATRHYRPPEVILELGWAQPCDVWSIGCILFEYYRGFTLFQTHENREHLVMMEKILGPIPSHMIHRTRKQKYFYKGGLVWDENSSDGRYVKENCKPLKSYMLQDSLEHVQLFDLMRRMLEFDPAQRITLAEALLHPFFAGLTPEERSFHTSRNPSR

HIPK1 = HIPK1 (Homo sapiens, UniProt Q86Z02); parameters: purchased ProQinase (Freiburg, Germany); conditions: 10 μM; cited from earlier work
Chain of HIPK1 (Q86Z02 whole entry): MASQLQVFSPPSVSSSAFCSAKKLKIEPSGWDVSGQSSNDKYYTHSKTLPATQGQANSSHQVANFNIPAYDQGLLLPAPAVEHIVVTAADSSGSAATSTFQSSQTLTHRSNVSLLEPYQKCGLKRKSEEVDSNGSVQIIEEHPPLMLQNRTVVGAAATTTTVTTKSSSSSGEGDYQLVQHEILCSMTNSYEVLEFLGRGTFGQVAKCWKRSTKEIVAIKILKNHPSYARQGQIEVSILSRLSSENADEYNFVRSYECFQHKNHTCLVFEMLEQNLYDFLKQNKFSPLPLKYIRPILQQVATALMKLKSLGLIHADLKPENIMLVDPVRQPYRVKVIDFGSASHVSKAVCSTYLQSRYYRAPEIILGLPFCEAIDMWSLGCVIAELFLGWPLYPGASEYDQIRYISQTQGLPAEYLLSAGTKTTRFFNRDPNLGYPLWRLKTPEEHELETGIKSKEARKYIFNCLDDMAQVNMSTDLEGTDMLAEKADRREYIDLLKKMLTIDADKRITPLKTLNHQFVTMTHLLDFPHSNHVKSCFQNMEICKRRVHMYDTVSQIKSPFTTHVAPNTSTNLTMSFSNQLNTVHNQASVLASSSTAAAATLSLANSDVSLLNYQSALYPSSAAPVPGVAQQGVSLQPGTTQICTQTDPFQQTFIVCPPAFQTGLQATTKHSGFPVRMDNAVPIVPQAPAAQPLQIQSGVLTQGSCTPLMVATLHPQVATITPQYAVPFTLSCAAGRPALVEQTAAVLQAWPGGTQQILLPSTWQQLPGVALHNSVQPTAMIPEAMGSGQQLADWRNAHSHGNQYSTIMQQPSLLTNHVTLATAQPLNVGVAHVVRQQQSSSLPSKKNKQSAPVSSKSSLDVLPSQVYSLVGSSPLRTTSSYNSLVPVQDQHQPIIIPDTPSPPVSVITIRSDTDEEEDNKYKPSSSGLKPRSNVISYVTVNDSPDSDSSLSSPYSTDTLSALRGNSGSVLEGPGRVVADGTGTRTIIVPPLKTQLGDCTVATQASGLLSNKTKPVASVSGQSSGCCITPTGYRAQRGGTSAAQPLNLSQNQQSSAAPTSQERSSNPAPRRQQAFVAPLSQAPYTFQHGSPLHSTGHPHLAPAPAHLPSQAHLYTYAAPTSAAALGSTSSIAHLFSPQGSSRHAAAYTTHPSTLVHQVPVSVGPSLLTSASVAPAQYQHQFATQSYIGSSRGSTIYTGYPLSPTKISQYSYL

DYRK3 = target: T8, DYRK3 (Homo sapiens, UniProt O43781); conditions: 10 μM; cited from earlier work
T8 construct: purchased ProQinase (Freiburg, Germany)
T8 sequence (O43781 1-588): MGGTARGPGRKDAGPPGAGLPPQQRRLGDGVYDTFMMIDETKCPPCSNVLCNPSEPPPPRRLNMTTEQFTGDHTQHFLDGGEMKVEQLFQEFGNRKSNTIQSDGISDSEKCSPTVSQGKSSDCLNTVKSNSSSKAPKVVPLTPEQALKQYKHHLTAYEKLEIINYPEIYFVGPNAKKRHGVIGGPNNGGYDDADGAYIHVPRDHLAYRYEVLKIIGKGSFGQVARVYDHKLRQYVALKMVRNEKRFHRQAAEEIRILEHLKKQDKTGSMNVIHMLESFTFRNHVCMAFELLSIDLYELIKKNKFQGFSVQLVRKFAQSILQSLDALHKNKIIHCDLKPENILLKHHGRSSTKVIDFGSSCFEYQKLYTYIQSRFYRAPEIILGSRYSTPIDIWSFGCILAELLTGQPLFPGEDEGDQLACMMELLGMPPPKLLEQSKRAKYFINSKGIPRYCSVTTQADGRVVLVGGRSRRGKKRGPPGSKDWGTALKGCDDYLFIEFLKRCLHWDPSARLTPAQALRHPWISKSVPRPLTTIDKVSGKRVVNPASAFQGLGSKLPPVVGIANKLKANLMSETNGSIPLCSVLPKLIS

CLK1 [8] = target: T5, CLK1; parameters: purchased ProQinase (Freiburg, Germany); conditions: 10 μM; cited from earlier work
CLK2 = target: T9, CLK2 (Homo sapiens, UniProt P49760); conditions: 10 μM; cited from earlier work
T9 construct: purchased ProQinase (Freiburg, Germany)
T9 sequence (P49760 whole entry): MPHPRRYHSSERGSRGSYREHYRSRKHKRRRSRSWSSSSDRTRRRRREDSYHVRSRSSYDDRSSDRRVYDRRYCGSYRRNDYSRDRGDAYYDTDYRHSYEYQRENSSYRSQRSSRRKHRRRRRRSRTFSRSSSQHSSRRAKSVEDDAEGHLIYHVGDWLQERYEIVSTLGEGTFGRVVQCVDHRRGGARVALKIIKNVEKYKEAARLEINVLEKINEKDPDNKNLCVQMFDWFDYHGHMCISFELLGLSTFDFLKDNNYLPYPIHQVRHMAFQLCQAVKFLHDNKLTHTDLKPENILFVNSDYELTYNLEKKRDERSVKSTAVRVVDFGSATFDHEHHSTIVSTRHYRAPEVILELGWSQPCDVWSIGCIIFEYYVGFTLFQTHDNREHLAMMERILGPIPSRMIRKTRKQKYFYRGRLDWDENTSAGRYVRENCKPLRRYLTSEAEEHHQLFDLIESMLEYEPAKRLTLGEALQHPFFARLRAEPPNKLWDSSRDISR

DYRK1A [9] = conditions: given because %-activity values are not given in the reference; read-out: IC50; cited from earlier work
DYRK2 [10] = target: T3, DYRK2; conditions: 10 μM; cited from earlier work
[11] = n = 3–5 concentration response curves

SMILES	IC50 (DYRK1A [1]) [µM]	IC50 (MAO-A; [11]) [µM]	viability at 3 days, 1 µM (Cell viability XTT assay [2]) [%]	viability at 3 days, 3 µM (Cell viability XTT assay [2]) [%]	viability at 3 days, 10 µM (Cell viability XTT assay [2]) [%]	Residual activity (% of control) DYRK2 (DYRK2 [3])	Residual activity (% of control) DYRK1A (DYRK1A [4])	viability at 3 days, 1 µM (Cell viability XTT assay [5]) [%]	viability at 3 days, 3 µM (Cell viability XTT assay [5]) [%]	viability at 3 days, 10 µM (Cell viability XTT assay [5]) [%]	viability at 3 days, 1 µM (Cell viability XTT assay [6]) [%]	viability at 3 days, 3 µM (Cell viability XTT assay [6]) [%]	viability at 3 days, 10 µM (Cell viability XTT assay [6]) [%]	Residual activity (% of control) DYRK1B (DYRK1B)	Residual activity (% of control) HIPK2 (HIPK2)	Residual activity (% of control) CLK1 (CLK1 [7])	other results
COc1ccc2c3ccnc(C)c3n(CC#N)c2c1 [AnnH31]	0.081	3.24	89	88	70	59 % of control	8 % of control	81	88	38	93	80	55	7 % of control	70 % of control	11 % of control	inhibition at 1 µM (MAO-A; 1 μM, primary screen): 25%; selectivity for DYRK1A over MAO-A (MAO-A; ratio of IC50 values): 40 fold; IC50 (MAO-A): 3.2 µM
COc1ccc2c3ccnc(C)c3n(C(C)C#N)c2c1 (centres unmarked) [AnnH43]	0.202	5.39	88	88	90	56 % of control	5 % of control	61	68	45	91	80	66	14 % of control	84 % of control	10 % of control	–
CCN1/C(=C/C(C)=O)Sc2ccc(O)cc21 [INDY]	–	–	–	–	–	–	–	–	–	–	–	–	–	–	–	–	Residual activity (% of control) (PIM1): 2 % of control; Residual activity (% of control) (DYRK4): 13 % of control; Residual activity (% of control) (CLK3): 30 % of control; Residual activity (% of control) (HIPK1): 64 % of control; Residual activity (% of control) (DYRK3): 0 % of control; Residual activity (% of control) (CLK1 [8]): 1 % of control; Residual activity (% of control) (CLK2): 12 % of control; IC50 (DYRK1A [9]): […]; Residual activity (% of control) (DYRK2 [10]): 3 % of control
